Where “and” joins values, the source holds several entries; their conditions need not be identical. Identical values can stand only once. Toxic doses and inconclusive results are not listed. The calls were made as follows: active = survival T/C of 150% or more; inactive = T/C below 125% in these data.
Test system: P388 leukemia ip, CD2F1 mice, survival T/C
Experiment: NCI In Vivo Anticancer Drug Screen. Data for tumor model P388 Leukemia (intraperitoneal) in CD2F1 (CDF1) mice
Conditions: endpoint: median survival time, higher = longer survival
Method in brief: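 Mice carrying the transplanted tumor received test compound or vehicle. Survival was recorded in each group, and the value is the treated-group measurement divided by that of the vehicle-treated control group.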

[1] = dose: 100.0 mg/kg/injection, schedule: Q04DX003 (ip), vehicle: saline
[2] = dose: 200.0 mg/kg/injection, schedule: Q04DX003 (ip), vehicle: saline with Tween-80
[3] = dose: 200.0 mg/kg/injection, schedule: Q04DX003 (ip), vehicle: saline
[4] = dose: 100.0 mg/kg/injection, schedule: Q01DX001 (ip), vehicle: saline with Tween-80
[5] = dose: 200.0 mg/kg/injection, schedule: Q01DX001 (ip), vehicle: saline with Tween-80
[6] = dose: 400.0 mg/kg/injection, schedule: Q01DX001 (ip), vehicle: saline with Tween-80
[7] = dose: 50.0 mg/kg/injection, schedule: Q01DX009 (ip), vehicle: saline with Tween-80
[8] = dose: 100.0 mg/kg/injection, schedule: Q01DX009 (ip), vehicle: saline with Tween-80
[9] = dose: 25.0 mg/kg/injection, schedule: Q01DX009 (ip), vehicle: saline with Tween-80
[10] = dose: 50.0 mg/kg/injection, schedule: Q01DX005 (ip), vehicle: saline with Tween-80
[11] = dose: 100.0 mg/kg/injection, schedule: Q01DX005 (ip), vehicle: saline with Tween-80

Measured: T/C

COc1cc2cc3c4cc(OC)c(OC)cc4cc[n+]3c(C)c2cc1OC (tested in a mixture with another compound)
active: dose: 12.5 mg/kg/injection, schedule: Q01DX009 (ip), vehicle: water 154 % of control | dose: 25.0 mg/kg/injection, schedule: Q01DX009 (ip), vehicle: water 158 % of control and 163 % of control and 172 % of control | dose: 50.0 mg/kg/injection, schedule: Q01DX009 (ip), vehicle: saline 191 % of control | dose: 50.0 mg/kg/injection, schedule: Q01DX009 (ip), vehicle: water 200 % of control | dose: 50.0 mg/kg/injection, schedule: Q04DX003 (ip), vehicle: water 152 % of control and 171 % of control | dose: 100.0 mg/kg/injection, schedule: Q01DX009 (ip), vehicle: water 200 % of control | [1] 150 % of control | dose: 100.0 mg/kg/injection, schedule: Q04DX003 (ip), vehicle: water 158 % of control and 162 % of control and 187 % of control | [2] 183 % of control | [3] 184 % of control
inactive: dose: 16.0 mg/kg/injection, schedule: Q01DX009 (ip), vehicle: water 106 % of control | dose: 16.0 mg/kg/injection, schedule: Q01DX009 (sc), vehicle: water 108 % of control | dose: 25.9 mg/kg/injection, schedule: Q04DX003 (ip), vehicle: water 118 % of control | dose: 32.0 mg/kg/injection, schedule: Q01DX009 (ip), vehicle: water 105 % of control | dose: 32.0 mg/kg/injection, schedule: Q01DX009 (sc), vehicle: water 118 % of control | dose: 43.2 mg/kg/injection, schedule: Q04DX003 (ip), vehicle: water 123 % of control | dose: 64.0 mg/kg/injection, schedule: Q01DX009 (sc), vehicle: water 123 % of control | dose: 100.0 mg/kg/injection, schedule: Q01DX009 (ip), vehicle: saline 90 % of control | dose: 128.0 mg/kg/injection, schedule: Q01DX009 (ip), vehicle: water 118 % of control | dose: 128.0 mg/kg/injection, schedule: Q01DX009 (sc), vehicle: water 115 % of control | dose: 256.0 mg/kg/injection, schedule: Q01DX009 (ip), vehicle: water 105 % of control | dose: 512.0 mg/kg/injection, schedule: Q01DX009 (ip), vehicle: water 89 % of control

O=c1[nH]c(=O)n(C2OC(CO)C(O)C2O)cc1CC(F)(F)C(F)(F)F (configuration not stated)
inactive: dose: 50.0 mg/kg/injection, schedule: Q01DX001 (ip), vehicle: saline with Tween-80 107 % of control | [4] 106 % of control | [5] 100 % of control | [6] 101 % of control

COC(=O)n1c(=O)ccc(=O)n1C(=O)OC
inactive: dose: 50.0 mg/kg/injection, schedule: Q01DX001 (ip), vehicle: saline 100 % of control and 103 % of control | dose: 100.0 mg/kg/injection, schedule: Q01DX001 (ip), vehicle: saline 98 % of control and 100 % of control and 106 % of control | dose: 200.0 mg/kg/injection, schedule: Q01DX001 (ip), vehicle: saline 100 % of control and 106 % of control and 115 % of control | dose: 400.0 mg/kg/injection, schedule: Q01DX001 (ip), vehicle: saline 100 % of control and 112 % of control and 122 % of control

CCOC(=O)C(CC)C1=CCCCC1 (configuration not stated)
inactive: [7] 109 % of control | [8] 118 % of control | dose: 100.0 mg/kg/injection, schedule: Q04DX003 (ip), vehicle: saline with Tween-80 109 % of control | dose: 200.0 mg/kg/injection, schedule: Q01DX009 (ip), vehicle: saline with Tween-80 118 % of control | [2] 100 % of control | dose: 400.0 mg/kg/injection, schedule: Q04DX003 (ip), vehicle: saline with Tween-80 113 % of control

CCOC(=O)C(Cc1ccc(N(CCCl)CCCl)cc1)NC(=O)CNC(C)=O (configuration not stated)
active: dose: 12.5 mg/kg/injection, schedule: Q01DX009 (ip), vehicle: saline with Tween-80 177 % of control | dose: 12.5 mg/kg/injection, schedule: Q04DX003 (ip), vehicle: saline 165 % of control | [9] 268 % of control
inactive: dose: 0.5 mg/kg/injection, schedule: Q04DX003 (ip), vehicle: saline with Tween-80 113 % of control | dose: 1.0 mg/kg/injection, schedule: Q04DX003 (ip), vehicle: saline with Tween-80 104 % of control | dose: 33.0 mg/kg/injection, schedule: Q04DX003 (ip), vehicle: saline with Tween-80 113 % of control | dose: 50.0 mg/kg/injection, schedule: Q04DX003 (ip), vehicle: saline with Tween-80 90 % of control

CCS/C(C#N)=C(/Br)c1ccc(OC)cc1
inactive: [7] 98 % of control | [8] 100 % of control

NC(=S)N/N=C/c1ccc(OC(=O)COc2ccccc2)cn1
active: [9] 171 % of control | [7] 205 % of control | [8] 205 % of control

O=C(NC(=O)c1ccccc1F)Nc1ccc(C(O)(C(F)(F)F)C(F)(F)F)cc1
inactive: [10] 104 % of control | [11] 98 % of control | dose: 200.0 mg/kg/injection, schedule: Q01DX005 (ip), vehicle: saline with Tween-80 100 % of control

CCCCCC(CN(C)C)C(=O)/C=C/c1ccc(C)cc1 (configuration not stated)
inactive: dose: 12.5 mg/kg/injection, schedule: Q01DX005 (ip), vehicle: saline with Tween-80 98 % of control | dose: 25.0 mg/kg/injection, schedule: Q01DX005 (ip), vehicle: saline with Tween-80 100 % of control | [10] 106 % of control and 97 % of control | [11] 98 % of control

O=C(Nc1cccc2c1C(O)c1ccccc1-2)C(Cl)Cl (configuration not stated)
inactive: dose: 60.0 mg/kg/injection, schedule: Q01DX005 (ip), vehicle: saline with Tween-80 97 % of control | dose: 120.0 mg/kg/injection, schedule: Q01DX005 (ip), vehicle: saline with Tween-80 98 % of control | dose: 240.0 mg/kg/injection, schedule: Q01DX005 (ip), vehicle: saline with Tween-80 104 % of control

Cc1ccc(S(=O)(=O)CC2(Br)Cc3ccccc3C2=O)cc1 (configuration not stated)
inactive: [1] 103 % of control | [3] 100 % of control | dose: 400.0 mg/kg/injection, schedule: Q04DX003 (ip), vehicle: saline 100 % of control

C=C(c1ccc(OC)cc1)c1cc(C(C)(C)C)c(O)c(C(C)(C)C)c1
inactive: dose: 50.0 mg/kg/injection, schedule: Q01DX005 (ip), vehicle: saline + Tween-80 + alcohol 101 % of control | dose: 100.0 mg/kg/injection, schedule: Q01DX005 (ip), vehicle: saline + Tween-80 + alcohol 97 % of control | dose: 200.0 mg/kg/injection, schedule: Q01DX005 (ip), vehicle: saline + Tween-80 + alcohol 100 % of control

CSCc1cc(C)ccc1NC(C)=O
inactive: dose: 50.0 mg/kg/injection, schedule: Q04DX002 (ip), vehicle: saline with Tween-80 98 % of control | [4] 99 % of control | dose: 100.0 mg/kg/injection, schedule: Q04DX002 (ip), vehicle: saline with Tween-80 98 % of control | [5] 99 % of control | dose: 200.0 mg/kg/injection, schedule: Q04DX002 (ip), vehicle: saline with Tween-80 102 % of control | [6] 100 % of control

CCOC(=O)c1ccc(N=C/C(Cl)=C(/Cl)C(=O)O)cc1
inactive: dose: 3.12 mg/kg/injection, schedule: Q01DX009 (ip), vehicle: other 102 % of control | dose: 6.25 mg/kg/injection, schedule: Q01DX009 (ip), vehicle: other 92 % of control | dose: 12.5 mg/kg/injection, schedule: Q01DX009 (ip), vehicle: Klucel (hydroxypropylcellulose) (HPC) 92 % of control | dose: 12.5 mg/kg/injection, schedule: Q01DX009 (ip), vehicle: other 89 % of control

N#CC(=Nc1ccccc1)c1cccc(Br)c1
inactive: dose: 50.0 mg/kg/injection, schedule: Q01DX009 (ip), vehicle: Klucel (hydroxypropylcellulose) (HPC) 109 % of control | dose: 100.0 mg/kg/injection, schedule: Q01DX009 (ip), vehicle: Klucel (hydroxypropylcellulose) (HPC) 109 % of control | dose: 200.0 mg/kg/injection, schedule: Q01DX009 (ip), vehicle: Klucel (hydroxypropylcellulose) (HPC) 117 % of control

COc1cc(OC)cc(-c2n[se]c(-c3cc(OC)cc(OC)c3)n2)c1
inactive: dose: 1.56 mg/kg/injection, schedule: Q01DX009 (ip), vehicle: saline with Tween-80 87 % of control | [7] 89 % of control

O=C1OC2(C=C1Br)CCC21C=C(Br)C(=O)O1 (configuration not stated)
inactive: dose: 25.0 mg/kg/injection, schedule: Q01DX009 (ip), vehicle: Klucel (hydroxypropylcellulose) (HPC) 98 % of control

COc1cc2cc3c(c(O)c2c(O)c1/C=C/C(C)C)C(=O)CC(C)(OC(C)=O)C3 (configuration not stated)
inactive: dose: 2.5 mg/kg/injection, schedule: Q01DX005 (ip), vehicle: Klucel (hydroxypropylcellulose) (HPC) 103 % of control | dose: 5.0 mg/kg/injection, schedule: Q01DX005 (ip), vehicle: Klucel (hydroxypropylcellulose) (HPC) 117 % of control
